Data from patent US8959984B2, “Proteome-wide quantification of small molecule binding to cellular target proteins” (priority 2007, dated 2015).
Read-outs that look alike come from different tables or passages of the source.

Columns and labels:
RIOK2 = biological target: T1, RIOK2 (Homo sapiens, UniProt Q9BVS4); assay: binding to immobilized V16742 (IVA1/IVA2, HeLa lysate, MS)
T1 construct: endogenous in cells; host or cells: HeLa S3

TLK2 = biological target: T2, TLK2 (Homo sapiens, UniProt Q86UE8); assay: as above
T2 construct: endogenous in cells; host or cells: HeLa S3
T2 sequence (Q86UE8 whole entry): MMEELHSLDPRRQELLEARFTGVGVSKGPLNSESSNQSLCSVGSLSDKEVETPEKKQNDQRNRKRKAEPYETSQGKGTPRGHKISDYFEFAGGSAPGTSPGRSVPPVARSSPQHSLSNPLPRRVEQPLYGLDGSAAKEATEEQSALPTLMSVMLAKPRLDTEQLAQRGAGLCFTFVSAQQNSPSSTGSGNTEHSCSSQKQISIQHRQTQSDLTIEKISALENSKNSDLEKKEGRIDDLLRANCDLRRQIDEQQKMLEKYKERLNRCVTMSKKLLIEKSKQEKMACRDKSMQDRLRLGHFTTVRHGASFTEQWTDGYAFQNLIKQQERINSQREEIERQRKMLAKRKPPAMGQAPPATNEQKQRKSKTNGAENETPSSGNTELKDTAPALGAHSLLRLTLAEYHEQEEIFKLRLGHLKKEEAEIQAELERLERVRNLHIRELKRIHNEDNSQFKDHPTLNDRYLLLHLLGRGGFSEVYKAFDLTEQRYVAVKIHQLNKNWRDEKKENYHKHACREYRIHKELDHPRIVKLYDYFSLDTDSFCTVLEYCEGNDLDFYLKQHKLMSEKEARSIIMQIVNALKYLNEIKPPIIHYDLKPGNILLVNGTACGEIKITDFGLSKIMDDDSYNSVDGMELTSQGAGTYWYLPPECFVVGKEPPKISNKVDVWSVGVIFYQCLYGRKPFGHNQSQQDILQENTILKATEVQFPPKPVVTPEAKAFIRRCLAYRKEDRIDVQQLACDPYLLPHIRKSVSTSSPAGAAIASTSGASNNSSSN

CaMKK1 = biological target: T3, CaMKK1 (Homo sapiens, UniProt Q8N5S9); assay: as above
T3 construct: endogenous in cells; host or cells: HeLa S3
T3 sequence (Q8N5S9 whole entry): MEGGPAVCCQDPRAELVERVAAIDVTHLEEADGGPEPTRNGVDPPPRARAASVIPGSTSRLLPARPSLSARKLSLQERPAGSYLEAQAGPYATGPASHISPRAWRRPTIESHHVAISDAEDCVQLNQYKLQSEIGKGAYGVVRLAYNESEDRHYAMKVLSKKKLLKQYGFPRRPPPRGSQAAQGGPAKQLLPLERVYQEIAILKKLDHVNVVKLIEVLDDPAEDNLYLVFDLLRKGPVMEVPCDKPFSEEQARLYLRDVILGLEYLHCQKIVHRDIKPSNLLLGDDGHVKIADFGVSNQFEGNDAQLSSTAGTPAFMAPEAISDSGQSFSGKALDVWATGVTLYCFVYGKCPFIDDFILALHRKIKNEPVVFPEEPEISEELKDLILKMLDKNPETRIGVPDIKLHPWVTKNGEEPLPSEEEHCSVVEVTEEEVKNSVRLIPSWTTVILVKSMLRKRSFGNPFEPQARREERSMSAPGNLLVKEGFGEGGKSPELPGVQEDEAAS

p38a = biological target: T4, p38a (Homo sapiens, UniProt Q16539); assay: as above; settings: p38a (IPI00221141.2)
T4 construct: endogenous in cells; host or cells: HeLa S3
T4 sequence (Q16539 whole entry): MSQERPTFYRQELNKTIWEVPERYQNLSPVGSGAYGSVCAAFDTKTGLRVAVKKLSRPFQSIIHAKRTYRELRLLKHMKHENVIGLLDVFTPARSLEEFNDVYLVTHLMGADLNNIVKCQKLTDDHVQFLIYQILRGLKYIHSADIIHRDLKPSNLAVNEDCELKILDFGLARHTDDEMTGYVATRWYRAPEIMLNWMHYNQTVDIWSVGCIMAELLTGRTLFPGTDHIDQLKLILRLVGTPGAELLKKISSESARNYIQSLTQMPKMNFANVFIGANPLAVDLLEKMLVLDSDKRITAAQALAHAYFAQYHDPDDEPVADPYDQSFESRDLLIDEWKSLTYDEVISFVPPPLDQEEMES

[1] = biological target: T5, hydroxyacyl Coenzyme A dehydrogenase, type II isoform 1 (Homo sapiens, UniProt Q99714); assay: as above
T5 construct: endogenous in cells; host or cells: HeLa S3
T5 sequence (Q99714 1-261): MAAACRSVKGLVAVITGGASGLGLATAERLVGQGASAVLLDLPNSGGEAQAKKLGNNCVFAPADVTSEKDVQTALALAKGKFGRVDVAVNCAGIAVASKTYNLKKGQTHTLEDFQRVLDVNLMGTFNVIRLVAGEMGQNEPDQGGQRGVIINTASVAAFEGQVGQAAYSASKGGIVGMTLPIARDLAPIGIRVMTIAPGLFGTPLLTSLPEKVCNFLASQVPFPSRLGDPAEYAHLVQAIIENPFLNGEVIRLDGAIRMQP

MAP3K6 = biological target: T6, MAP3K6 (Homo sapiens, UniProt O95382); assay: as above
T6 construct: endogenous in cells; host or cells: HeLa S3
T6 sequence (O95382 1-1288): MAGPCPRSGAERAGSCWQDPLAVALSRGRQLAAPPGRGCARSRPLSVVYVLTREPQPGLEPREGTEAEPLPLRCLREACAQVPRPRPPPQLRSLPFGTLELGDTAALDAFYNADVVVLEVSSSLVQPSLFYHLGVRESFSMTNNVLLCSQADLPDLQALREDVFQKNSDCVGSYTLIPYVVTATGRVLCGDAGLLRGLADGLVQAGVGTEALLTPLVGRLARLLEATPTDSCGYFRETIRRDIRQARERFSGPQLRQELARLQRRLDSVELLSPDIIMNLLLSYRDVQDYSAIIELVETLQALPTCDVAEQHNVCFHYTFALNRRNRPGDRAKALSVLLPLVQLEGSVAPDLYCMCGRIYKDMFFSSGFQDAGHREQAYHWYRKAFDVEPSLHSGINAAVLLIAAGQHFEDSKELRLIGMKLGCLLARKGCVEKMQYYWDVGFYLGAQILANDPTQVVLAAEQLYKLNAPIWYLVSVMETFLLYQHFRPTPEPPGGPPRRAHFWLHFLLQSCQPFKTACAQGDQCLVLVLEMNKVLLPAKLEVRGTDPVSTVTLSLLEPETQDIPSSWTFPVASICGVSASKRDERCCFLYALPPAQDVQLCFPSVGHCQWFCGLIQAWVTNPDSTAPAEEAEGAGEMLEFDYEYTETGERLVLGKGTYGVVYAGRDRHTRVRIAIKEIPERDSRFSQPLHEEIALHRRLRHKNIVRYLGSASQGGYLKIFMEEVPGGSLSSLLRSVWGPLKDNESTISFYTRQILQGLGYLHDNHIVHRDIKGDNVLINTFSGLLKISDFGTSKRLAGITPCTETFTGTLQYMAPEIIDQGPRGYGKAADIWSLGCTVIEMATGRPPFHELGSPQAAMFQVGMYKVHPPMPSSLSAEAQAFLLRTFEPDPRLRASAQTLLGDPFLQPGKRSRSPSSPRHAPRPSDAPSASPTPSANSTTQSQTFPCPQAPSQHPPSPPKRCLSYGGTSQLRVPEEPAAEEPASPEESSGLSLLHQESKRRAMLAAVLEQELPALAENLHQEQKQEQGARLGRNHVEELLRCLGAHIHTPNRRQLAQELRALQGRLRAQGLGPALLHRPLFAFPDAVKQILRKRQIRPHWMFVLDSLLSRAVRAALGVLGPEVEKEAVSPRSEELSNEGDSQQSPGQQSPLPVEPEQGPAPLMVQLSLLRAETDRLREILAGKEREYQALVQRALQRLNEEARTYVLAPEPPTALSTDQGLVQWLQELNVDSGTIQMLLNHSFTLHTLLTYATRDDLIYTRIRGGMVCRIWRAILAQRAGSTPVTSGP

NAMPT = NAMPT (Homo sapiens, UniProt P43490)
NAMPT, sequence (P43490 whole entry): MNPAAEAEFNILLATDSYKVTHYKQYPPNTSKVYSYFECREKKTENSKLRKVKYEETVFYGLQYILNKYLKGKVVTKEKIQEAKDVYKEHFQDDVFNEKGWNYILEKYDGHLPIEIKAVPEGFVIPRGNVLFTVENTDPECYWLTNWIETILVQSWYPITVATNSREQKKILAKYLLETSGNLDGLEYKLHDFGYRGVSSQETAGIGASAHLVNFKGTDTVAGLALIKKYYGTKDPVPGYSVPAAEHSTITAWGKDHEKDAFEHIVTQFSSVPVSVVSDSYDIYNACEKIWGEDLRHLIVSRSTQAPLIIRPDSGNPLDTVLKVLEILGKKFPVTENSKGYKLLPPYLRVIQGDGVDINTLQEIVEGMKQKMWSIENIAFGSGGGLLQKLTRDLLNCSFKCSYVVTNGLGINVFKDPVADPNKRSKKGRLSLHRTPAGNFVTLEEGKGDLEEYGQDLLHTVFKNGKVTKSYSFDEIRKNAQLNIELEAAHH

CK1d = CK1d (Homo sapiens, UniProt P48730); assay: binding to immobilized V16742 (IVA1/IVA2, HeLa lysate, MS)
CK1d, sequence (P48730 whole entry): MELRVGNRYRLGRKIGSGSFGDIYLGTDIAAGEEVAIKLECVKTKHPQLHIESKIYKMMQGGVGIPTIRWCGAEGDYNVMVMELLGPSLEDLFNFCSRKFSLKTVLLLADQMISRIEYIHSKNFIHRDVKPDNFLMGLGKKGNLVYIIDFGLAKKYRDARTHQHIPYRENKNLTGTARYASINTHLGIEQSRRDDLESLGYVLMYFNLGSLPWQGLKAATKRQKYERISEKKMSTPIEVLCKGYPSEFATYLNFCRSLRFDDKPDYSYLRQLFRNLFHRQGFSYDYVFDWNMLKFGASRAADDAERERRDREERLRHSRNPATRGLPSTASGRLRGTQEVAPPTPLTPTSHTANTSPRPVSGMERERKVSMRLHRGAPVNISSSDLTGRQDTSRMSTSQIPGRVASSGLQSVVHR

[2] = average of two experiments, read-out: Kd Avg

T1 sequence (Q9BVS4 whole entry): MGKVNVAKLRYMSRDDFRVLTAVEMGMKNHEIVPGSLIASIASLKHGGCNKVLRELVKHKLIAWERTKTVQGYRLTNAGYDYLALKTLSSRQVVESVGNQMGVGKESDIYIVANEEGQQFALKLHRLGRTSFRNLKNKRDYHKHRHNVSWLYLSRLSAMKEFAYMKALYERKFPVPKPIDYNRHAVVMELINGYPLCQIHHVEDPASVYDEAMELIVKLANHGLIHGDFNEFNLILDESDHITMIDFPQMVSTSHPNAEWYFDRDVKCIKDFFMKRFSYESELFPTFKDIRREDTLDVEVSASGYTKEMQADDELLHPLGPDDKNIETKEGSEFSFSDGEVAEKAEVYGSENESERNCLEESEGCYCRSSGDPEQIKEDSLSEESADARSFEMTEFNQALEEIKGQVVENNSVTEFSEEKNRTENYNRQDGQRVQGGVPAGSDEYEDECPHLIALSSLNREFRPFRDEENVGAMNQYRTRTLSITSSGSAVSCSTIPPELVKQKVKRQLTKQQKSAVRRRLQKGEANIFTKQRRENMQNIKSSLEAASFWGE

For `CC(C)n1c(=O)ccc2cnc(Nc3ccc(OCCN)cc3)nc21` [V16742], the “Percent bound at various 16742 conc” value (RIOK2; Experiment 1, 8.74 μM 16742) was 11.61%, the “Percent bound at various 16742 conc” value (RIOK2; Experiment 1, 52 μM 16742) was 58.06% and the Kd (RIOK2; Experiment 1, read-out: Kd) was 42.6 µM. The “Percent bound at various 16742 conc” value (RIOK2; Experiment 2, 1.87 μM 16742) was 1.55%, the “Percent bound at various 16742 conc” value (RIOK2; Experiment 2, 8.74 μM 16742) was 7.91% and the “Percent bound at various 16742 conc” value (RIOK2; Experiment 2, 52 μM 16742) was 48.34%. The Kd (RIOK2; Experiment 2, read-out: Kd) was 60.8 µM, the Kd (RIOK2; [2]) was 51.7 µM and the “Percent bound at various 16742 conc” value (TLK2; Experiment 1, 1.87 μM 16742) was 2.49%. For the same molecule, the “Percent bound at various 16742 conc” value (TLK2; Experiment 1, 8.74 μM 16742) was 3.89%, the “Percent bound at various 16742 conc” value (TLK2; Experiment 1, 52 μM 16742) was 58.72% and the Kd (TLK2; Experiment 1, read-out: Kd) was 47.3 µM. The “Percent bound at various 16742 conc” value (TLK2; Experiment 2, 1.87 μM 16742) was 1.24%, the “Percent bound at various 16742 conc” value (TLK2; Experiment 2, 8.74 μM 16742) was 3.73% and the “Percent bound at various 16742 conc” value (TLK2; Experiment 2, 52 μM 16742) was 41.78%. The Kd (TLK2; Experiment 2, read-out: Kd) was 80 µM, the Kd (TLK2; [2]) was 63.7 µM and the “Percent bound at various 16742 conc” value (CaMKK1; Experiment 1, 1.87 μM 16742) was 2.08%. The “Percent bound at various 16742 conc” value (CaMKK1; Experiment 1, 8.74 μM 16742) was 10.67%, the “Percent bound at various 16742 conc” value (CaMKK1; Experiment 1, 52 μM 16742) was 63.34% and the Kd (CaMKK1; Experiment 1, read-out: Kd) was 37.9 µM. For the same molecule, the “Percent bound at various 16742 conc” value (CaMKK1; Experiment 2, 1.87 μM 16742) was 1.46%, the “Percent bound at various 16742 conc” value (CaMKK1; Experiment 2, 8.74 μM 16742) was 6.65% and the “Percent bound at various 16742 conc” value (CaMKK1; Experiment 2, 52 μM 16742) was 47.32%. The Kd (CaMKK1; Experiment 2, read-out: Kd) was 63.9 µM, the Kd (CaMKK1; [2]) was 50.9 µM and the “Percent bound at various 16742 conc” value (p38a; Experiment 1, 1.87 μM 16742) was 4.98%. For the same molecule, the “Percent bound at various 16742 conc” value (p38a; Experiment 1, 8.74 μM 16742) was 6.72%, the “Percent bound at various 16742 conc” value (p38a; Experiment 1, 52 μM 16742) was 49.78% and the Kd (p38a; Experiment 1, read-out: Kd) was 58.3 µM. For the same molecule, the “Percent bound at various 16742 conc” value (p38a; Experiment 2, 1.87 μM 16742) was 3.02%, the “Percent bound at various 16742 conc” value (p38a; Experiment 2, 8.74 μM 16742) was 1.43% and the “Percent bound at various 16742 conc” value (p38a; Experiment 2, 52 μM 16742) was 24.52%. The Kd (p38a; Experiment 2, read-out: Kd) was 167 µM, the Kd (p38a; [2]) was 113 µM and the “Percent bound at various 16742 conc” value ([1]; Experiment 1, 1.87 μM 16742) was 4.41%. For the same molecule, the “Percent bound at various 16742 conc” value ([1]; Experiment 1, 8.74 μM 16742) was 4.37%, the “Percent bound at various 16742 conc” value ([1]; Experiment 1, 52 μM 16742) was 62.08% and the Kd ([1]; Experiment 1, read-out: Kd) was 42.7 µM. For the same molecule, the “Percent bound at various 16742 conc” value ([1]; Experiment 2, 1.87 μM 16742) was 8.75%, the “Percent bound at various 16742 conc” value ([1]; Experiment 2, 8.74 μM 16742) was 10.79% and the “Percent bound at various 16742 conc” value ([1]; Experiment 2, 52 μM 16742) was 41.03%. The Kd ([1]; Experiment 2, read-out: Kd) was 72.8 µM, the Kd [1, 2] was 57.7 µM and the “Percent bound at various 16742 conc” value (MAP3K6; Experiment 1, 8.74 μM 16742) was 3.57%. For the same molecule, the “Percent bound at various 16742 conc” value (MAP3K6; Experiment 1, 52 μM 16742) was 51.68%, the Kd (MAP3K6; Experiment 1, read-out: Kd) was 57.7 µM and the “Percent bound at various 16742 conc” value (MAP3K6; Experiment 2, 1.87 μM 16742) was 2.67%. The “Percent bound at various 16742 conc” value (MAP3K6; Experiment 2, 8.74 μM 16742) was 3.94%, the “Percent bound at various 16742 conc” value (MAP3K6; Experiment 2, 52 μM 16742) was 13.37% and the Kd (MAP3K6; Experiment 2, read-out: Kd) was 326 µM. The Kd (MAP3K6; [2]) was 192 µM.

`COc1cc2ncnc(Nc3ccc(F)c(Cl)c3)c2cc1OCCCN1CCOCC1` [gefitinib] was tested, and the “rAVERAGE (10 nM/0 nM Gef.)” value (NAMPT) was 0.71, the “rAVERAGE (100 nM/0 nM Gef.)” value (NAMPT) was 0.74 and the “rAVERAGE (1000 nM/0 nM Gef.)” value (NAMPT) was 0.73. The “rAVERAGE (10000 nM/0 nM Gef.)” value (NAMPT) was 0.92.

For `CC(C)n1c(=O)ccc2cnc(Nc3ccc(OCCN)cc3)nc21` [compound 16742], the “Percent bound at 1.87 μM 16742 conc” value (CK1d; EXPERIMENT 1) was 16.07%, the “Percent bound at 8.74 μM 16742 conc” value (CK1d; EXPERIMENT 1) was 57.03% and the “Percent bound at 52 μM 16742 conc” value (CK1d; EXPERIMENT 1) was 87.27%. For the same molecule, the Kd (CK1d; EXPERIMENT 1, read-out: Kd) was 7.38 µM, the “Percent bound at 1.87 μM 16742 conc” value (CK1d; EXPERIMENT 2) was 19.73% and the “Percent bound at 8.74 μM 16742 conc” value (CK1d; EXPERIMENT 2) was 70.68%. The “Percent bound at 52 μM 16742 conc” value (CK1d; EXPERIMENT 2) was 87.40%, the Kd (CK1d; EXPERIMENT 2, read-out: Kd) was 5.07 µM and the Kd (CK1d; read-out: Kd Avg) was 6.23 µM.
